Reference: ChEMBL document CHEMBL1136141, “2-Phenyl-5,6-dihydro-2H-thieno[3,2-c]pyrazol-3-ol derivatives as new inhibitors of bacterial cell wall biosynthesis” (Bioorg Med Chem Lett, 2003)
Converted amounts (≈) assume the structure as drawn.

Experiments:
Escherichia coli [1] = experiment: Minimum inhibitory activity against Escherichia coli GC 4560; assay type: functional
[2] = Minimum inhibitory activity against MSCNS GC 646; assay type: functional
Staphylococcus aureus [3] = experiment: Minimum inhibitory activity against Staphylococcus aureus GC 1131 (MRSA); assay type: functional
[4] = target: T1, UDP-N-acetylmuramoylalanine--D-glutamate ligase (Staphylococcus aureus, UniProt P0A091); experiment: In vitro inhibitory activity against Staphylococcus aureus UDP-N-acetylmuramoyl-L-alanyl-D-glutamate synthetase
T1 sequence (P0A091 whole entry): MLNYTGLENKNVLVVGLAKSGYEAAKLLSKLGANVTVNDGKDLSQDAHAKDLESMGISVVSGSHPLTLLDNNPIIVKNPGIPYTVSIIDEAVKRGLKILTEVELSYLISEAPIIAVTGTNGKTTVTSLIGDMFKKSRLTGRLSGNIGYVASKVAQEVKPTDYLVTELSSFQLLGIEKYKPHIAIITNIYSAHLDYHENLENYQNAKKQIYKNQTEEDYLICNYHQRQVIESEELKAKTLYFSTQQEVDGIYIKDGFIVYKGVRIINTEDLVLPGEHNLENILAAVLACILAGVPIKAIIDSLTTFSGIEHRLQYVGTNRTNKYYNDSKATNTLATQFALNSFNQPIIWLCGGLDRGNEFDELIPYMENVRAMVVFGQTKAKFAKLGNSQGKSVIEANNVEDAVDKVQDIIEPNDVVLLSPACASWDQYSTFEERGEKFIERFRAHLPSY

[5] = Minimum inhibitory activity against Streptococcus pneumoniae GC1894 (PRSP); assay type: functional
[6] = target: T2, UDP-N-acetylenolpyruvoylglucosamine reductase (Staphylococcus aureus, UniProt P61431); experiment: In vitro inhibitory activity against Staphylococcus aureus UDP-N-acetylmuramate dehydrogenase
T2 sequence (P61431 whole entry): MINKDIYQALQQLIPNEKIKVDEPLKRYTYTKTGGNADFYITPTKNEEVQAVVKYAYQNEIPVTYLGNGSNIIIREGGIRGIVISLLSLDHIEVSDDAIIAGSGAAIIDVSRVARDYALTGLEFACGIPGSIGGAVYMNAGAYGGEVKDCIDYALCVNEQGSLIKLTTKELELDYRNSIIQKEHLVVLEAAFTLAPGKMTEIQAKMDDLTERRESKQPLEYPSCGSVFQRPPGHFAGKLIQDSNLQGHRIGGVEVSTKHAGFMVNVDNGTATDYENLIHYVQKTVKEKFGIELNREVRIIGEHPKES

[7] = Minimum inhibitory activity in presence of 4% bovine serum albumin against Streptococcus pneumoniae GC1894 (PRSP); assay type: functional
Enterococcus faecalis [8] = experiment: Minimum inhibitory activity against Enterococcus faecalis GC 4555 (ATCC); assay type: functional
Enterococcus faecalis [9] = experiment: Minimum inhibitory activity against Enterococcus faecalis GC 2242 (VRE); assay type: functional
Staphylococcus aureus [10] = experiment: Minimum inhibitory activity against Staphylococcus aureus GC 2216 (ATCC); assay type: functional
Staphylococcus aureus [11] = experiment: Minimum inhibitory activity against Staphylococcus aureus GC 4543 (MSSA); assay type: functional
Escherichia coli [12] = experiment: Minimum inhibitory activity against Escherichia coli GC 4559; assay type: functional
[13] = target: T3, UDP-N-acetylmuramate--L-alanine ligase (Staphylococcus aureus, UniProt O31211); experiment: In vitro inhibitory activity against Staphylococcus aureus UDP-N-acetylmuramoyl-L-alanine synthetase
T3 sequence (O31211 whole entry): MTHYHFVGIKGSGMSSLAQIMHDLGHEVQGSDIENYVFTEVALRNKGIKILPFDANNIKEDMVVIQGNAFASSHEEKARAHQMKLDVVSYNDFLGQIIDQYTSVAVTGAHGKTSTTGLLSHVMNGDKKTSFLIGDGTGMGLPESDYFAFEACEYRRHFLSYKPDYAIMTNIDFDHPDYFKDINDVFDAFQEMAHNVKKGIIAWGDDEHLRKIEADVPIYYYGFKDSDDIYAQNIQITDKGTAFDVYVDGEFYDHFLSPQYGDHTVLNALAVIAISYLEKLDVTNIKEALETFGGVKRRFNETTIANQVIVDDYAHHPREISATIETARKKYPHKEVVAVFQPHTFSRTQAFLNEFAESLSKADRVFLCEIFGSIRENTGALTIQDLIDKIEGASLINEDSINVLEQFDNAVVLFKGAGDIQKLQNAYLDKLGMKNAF

Bacteria = experiment: Minimum inhibitory activity against gram negative bacteria; assay type: functional
[14] = Partition coefficient (logP); assay type: physicochemical; settings: octanol/water

| Compound | MIC (Escherichia coli [1]) [µg/mL] | MIC ([2]; Staphylococcus) [µg/mL] | MIC (Staphylococcus aureus [3]) [µg/mL] | IC50 [4] [µM] | MIC [5] [µg/mL] | IC50 [6] [µM] | MIC [7] [µg/mL] | MIC (Enterococcus faecalis [8]) [µg/mL] | MIC (Enterococcus faecalis [9]) [µg/mL] | MIC (Staphylococcus aureus [10]) [µg/mL] | MIC (Staphylococcus aureus [11]) [µg/mL] | MIC (Escherichia coli [12]) [µg/mL] | IC50 [13] [µM] | MIC (Bacteria) [µg/mL] | logP [14] | MIC [2] [µg/mL] |
| --- | --- | --- | --- | --- | --- | --- | --- | --- | --- | --- | --- | --- | --- | --- | --- | --- |
| Oc1c2c(nn1-c1cccc(Cl)c1)CCS2 | > 128 | 32 (≈ 127 µM) | 32 (≈ 127 µM) | 32.8 | 2 (≈ 7.91 µM) | > 98.9 | > 128 | 32 (≈ 127 µM) | 8 (≈ 31.7 µM) | 8 (≈ 31.7 µM) | 32 (≈ 127 µM) | > 128 | 62.5 |  |  |  |
| N#Cc1ccc(-n2nc3c(c2O)SCC3)cc1 | 64 (≈ 263 µM) | 4 (≈ 16.4 µM) | 32 (≈ 132 µM) | 49.3 | 4 (≈ 16.4 µM) | > 103 | > 128 | 8 (≈ 32.9 µM) | 8 (≈ 32.9 µM) | 8 (≈ 32.9 µM) | 16 (≈ 65.8 µM) | > 128 | > 103 |  | 2.53 |  |
| Oc1c2c(nn1-c1ccc(Cl)cc1)COC2 |  |  |  |  |  | > 106 |  |  |  |  |  |  |  | > 128 |  |  |
| Oc1c2c(nn1-c1ccccc1)CCS2 | > 128 |  | 16 (≈ 73.3 µM) | 94.8 | 4 (≈ 18.3 µM) | > 115 | > 128 | 32 (≈ 147 µM) | 4 (≈ 18.3 µM) | 16 (≈ 73.3 µM) | 32 (≈ 147 µM) | > 128 | > 115 |  |  | 16 (≈ 73.3 µM) |

The remaining lines, values ahead:

| MIC (Escherichia coli [1]) [µg/mL] | MIC ([2]; Staphylococcus) [µg/mL] | MIC (Staphylococcus aureus [3]) [µg/mL] | IC50 [4] [µM] | MIC [5] [µg/mL] | IC50 [6] [µM] | MIC [7] [µg/mL] | MIC (Enterococcus faecalis [8]) [µg/mL] | MIC (Enterococcus faecalis [9]) [µg/mL] | MIC (Staphylococcus aureus [10]) [µg/mL] | MIC (Staphylococcus aureus [11]) [µg/mL] | MIC (Escherichia coli [12]) [µg/mL] | IC50 [13] [µM] | MIC (Bacteria) [µg/mL] | logP [14] | MIC [2] [µg/mL] | Compound |
| --- | --- | --- | --- | --- | --- | --- | --- | --- | --- | --- | --- | --- | --- | --- | --- | --- |
|  |  |  |  |  | > 90.2 |  |  |  |  |  |  |  | > 128 |  |  | O=[N+]([O-])c1ccc(-n2nc3c(c2O)CSCC3)cc1 |
| 64 (≈ 263 µM) | 2 (≈ 8.22 µM) | 32 (≈ 132 µM) | 46.9 | 4 (≈ 16.4 µM) | 57.5 | > 128 | 8 (≈ 32.9 µM) | 8 (≈ 32.9 µM) | 8 (≈ 32.9 µM) | 16 (≈ 65.8 µM) | > 128 | 54.7 |  |  |  | N#Cc1cccc(-n2nc3c(c2O)SCC3)c1 |
| > 128 | 1 (≈ 3.8 µM) | 64 (≈ 243 µM) | 36.1 | 4 (≈ 15.2 µM) | 21.3 | > 128 | 32 (≈ 122 µM) | 64 (≈ 243 µM) | 4 (≈ 15.2 µM) | 2 (≈ 7.6 µM) | > 128 | 72.5 |  |  |  | O=[N+]([O-])c1ccc(-n2nc3c(c2O)SCC3)cc1 |
|  |  |  |  |  | > 87.1 |  |  |  |  |  |  |  | 32 (≈ 111 µM) |  |  | Oc1c2c(nn1-c1ccc(Cl)c(Cl)c1)CSC2 |
| > 128 | > 128 | 32 (≈ 90.3 µM) | > 70.6 | 2 (≈ 5.65 µM) | > 70.6 | > 128 | 32 (≈ 90.3 µM) | 16 (≈ 45.2 µM) | 32 (≈ 90.3 µM) | 32 (≈ 90.3 µM) | > 128 | > 70.6 |  |  |  | Oc1c2c(nn1-c1cc(C(F)(F)F)cc(C(F)(F)F)c1)CCS2 |
| > 128 | 16 (≈ 60 µM) | 16 (≈ 60 µM) | 64.1 | 4 (≈ 15 µM) | > 93.7 | > 128 | 32 (≈ 120 µM) | 2 (≈ 7.5 µM) | 32 (≈ 120 µM) | 16 (≈ 60 µM) | > 128 | > 93.7 |  |  |  | CC1Cc2nn(-c3ccc(Cl)cc3)c(O)c2S1 (stereo not given) |
|  |  |  |  |  | > 88.3 |  |  |  |  |  |  |  | > 128 |  |  | Oc1c2c(nn1-c1ccc(Cl)c(Cl)c1)CCCC2 |
